According to US10167276B2, “Compounds and methods for inhibiting JAK” (Dizal (Jiangsu) Pharmaceutical Co., Ltd., priority 2015, dated 2019):

Columns and labels:
[1] = system: NCI-H1650 tumor xenografts; experiment: In vivo efficacy with gefitinib in the H1650 xenograft model; design: species or system mice; details: Example 32 25 or 50 mg/kg BID + gefitinib 6.25 mg/kg QD, oral, 21 days
Protocol: (§1) Tumor volume was measured twice a week.
(§2) Twenty-three days after cell implantation, the mice were randomized into 6 groups (9 mice/group, average tumor volume 257 mm^3, range 205-303 mm^3). […] Drug levels in plasma were measured by LC/MS, using a Linear Ion Trap Quadrupole LC/MS/MS Mass Spectrometer (QTRAP 5500 model 1024945-BB, AB Sciex Instruments), with separation on a Waters Xbridge C18 column.

[2] = system: LG1049 non-small cell lung cancer PDX tumor xenografts; experiment: In vivo efficacy with osimertinib in the LG1049 xenograft PDX model
Protocol: LG1049 non-small cell lung cancer PDX tumor xenografts were grown subcutaneously in female NSG mice. […] Tumor volume was measured twice a week.
(§3) LG1 049 tumor fragments were implanted subcutaneously in female NSG mice (JAX Stock No. 005557).

pSTAT3 (Y705) [3] = experiment: pSTAT3 levels in LG1049 tumor lysates (Western Blot); format: in vivo, mice; details: Example 32 25 mg/kg BID, 5 days of treatment, 4H after the final dose
Source text: LG1 049 tumor fragments were implanted subcutaneously in female NSG mice (JAX Stock No. 005557). Once tumor volumes reached ˜125-275 mm^3, mice were randomized into 5 groups (10 mice/group, average tumor volume 189 mm^3, range 138-253 mm^3).

PC-9 tumor xenografts = experiment: In vivo efficacy with gefitinib in the PC-9 xenograft model; design: species or system mice
Protocol: as §1

pSTAT3 (Y705) [4] = experiment: pSTAT3 (Y705) levels in NCI-H1975 tumor lysates (sandwich ELISA); format: in vivo, mice; details: increasing dose of Example 32 (12.5 to 50 mg/kg BID), one day of treatment
Protocol: (§4) NCI-H1975 cells (a human NSCLC cell line with L858R and T790M mutations in the EGFR gene) tumor cells were implanted subcutaneously in female NCr nude mice (Taconic Laboratories), 3×10^6 cells/mouse. […] Drug levels in plasma were measured by LC/MS, using a Linear Ion Trap Quadrupole LC/MS/MS Mass Spectrometer (QTRAP 5500 model 1024945-BB, AB Sciex Instruments), with separation on a Waters Xbridge C18 column.

[5] = system: NCI-H1975 tumor xenografts; experiment: In vivo efficacy with osimertinib in the H1975 xenograft model; design: species or system mice; details: oral, 18 days
Protocol: as §1
NCI-H1975 cells (a human NSCLC cell line with L858R and T790M mutations in the EGFR gene) tumor cells were implanted subcutaneously in female NCr nude mice (Taconic Laboratories), 3×10^6 cells/mouse.

pSTAT3 (Y705) [6] = experiment: pSTAT3 (Y705) levels in PC-9 tumor lysates (Western Blot); format: in vivo, mice; details: increasing dose of Example 32 (12.5, 50 mg/kg BID) with gefitinib; 2, 8 and 24 hours after the AM dose, last day
[7] = Drug levels in plasma by LC/MS, NCI-H1975 tumor bearing mice; format: in vivo; details: increasing dose of Example 32 (12.5 to 50 mg/kg BID), one day of treatment
Protocol: as §4

[8] = system: NCI-H1975 tumor xenografts; experiment: In vivo efficacy of intermittent Example 32 dosing schedules with osimertinib in the H1975 xenograft model; design: species or system mice; details: oral
Protocol: as §1
NCI-H1975 cells (a human NSCLC cell line with L858R and T790M mutations in the EGFR gene), were implanted subcutaneously in female NCr nude mice (Taconic Laboratories), 3×10^6 cells/mouse.

pSTAT3 (Y705) [9] = experiment: pSTAT3 levels in NCI-H1650 tumor lysates (Western Blot); format: in vivo, mice; details: Example 32 as single agent and in combination with gefitinib, after one day of treatment
Protocol: as §2

[10] = system: STAT3 phosphorylation in NCI-H1975 cells; experiment: Cellular pSTAT3 assay in NCI-H1975 cells; format: cell-based; details: Homo sapiens, 2 hours with compound
In short: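 NCI-H1975 cells (RPMI, 10% FBS) were treated with compound for 2 hours at 37° C., then lysed. Phospho-STAT3 in lysates was quantified by sandwich ELISA (STAT3 capture, phospho-STAT3 detection, HRP secondary, TMB), read at 450 nm.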

pEGFR = pEGFR levels in LG1049 tumor lysates (Western Blot); format: in vivo, mice; details: osimertinib 25 mg/kg QD, 5 days of treatment, 4H after the final dose
Source text: as §3

JAK3 = JAK3 (Homo sapiens (Human), UniProt P52333); experiment: Enzyme inhibition studies, recombinant JAK3 (Caliper peptide phosphorylation); format: biochemical; details: recombinant JAK3 (amino acids 781-1124); assayed at ATP Km (3 μM) and 5 mM ATP, table does not say which
Protocol: (§5) Enzyme inhibition studies were performed using recombinant JAK1 (amino acids 866-1154, Life Technologies, #PV4774, Carlsbad, Calif.), JAK2 (amino acids 831-1132), or JAK3 (amino acids 781-1124) under buffer conditions of 50 mM HEPES pH 7.3, 1 mM DTT, 0.01% Tween® 20, 50 μg/mL BSA, and 10 mM MgCl2. JAK enzyme was expressed as an N-terminal GST fusion in insect cells and purified by glutathione-affinity and size-exclusion chromatographies. […] Phosphorylated and unphosphorylated peptides were separated and quantified by a Caliper LC3000 system (Caliper Life Sciences, MA) for calculating percent inhibition.

JAK1 = JAK1 (Homo sapiens (Human), UniProt P23458); experiment: Enzyme inhibition studies, recombinant JAK1 (Caliper peptide phosphorylation); format: biochemical; details: recombinant JAK1 (amino acids 866-1154); assayed at ATP Km (55 μM) and 5 mM ATP, table does not say which
Protocol: as §5

JAK2 = JAK2 (Homo sapiens (Human), UniProt O60674); experiment: Enzyme inhibition studies, recombinant JAK2 (Caliper peptide phosphorylation); format: biochemical; details: recombinant JAK2 (amino acids 831-1132); assayed at ATP Km (15 μM) and 5 mM ATP, table does not say which
Protocol: as §5

Chain of JAK3 (P52333 781-1124): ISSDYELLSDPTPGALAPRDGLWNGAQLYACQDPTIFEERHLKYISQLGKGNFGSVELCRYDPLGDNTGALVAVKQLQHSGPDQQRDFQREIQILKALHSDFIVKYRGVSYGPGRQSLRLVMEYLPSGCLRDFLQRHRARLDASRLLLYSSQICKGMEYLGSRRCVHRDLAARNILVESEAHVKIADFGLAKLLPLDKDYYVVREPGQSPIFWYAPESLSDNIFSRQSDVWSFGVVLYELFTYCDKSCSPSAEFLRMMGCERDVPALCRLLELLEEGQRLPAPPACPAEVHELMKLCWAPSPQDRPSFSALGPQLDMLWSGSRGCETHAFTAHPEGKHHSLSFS
Chain of JAK1 (P23458 866-1154): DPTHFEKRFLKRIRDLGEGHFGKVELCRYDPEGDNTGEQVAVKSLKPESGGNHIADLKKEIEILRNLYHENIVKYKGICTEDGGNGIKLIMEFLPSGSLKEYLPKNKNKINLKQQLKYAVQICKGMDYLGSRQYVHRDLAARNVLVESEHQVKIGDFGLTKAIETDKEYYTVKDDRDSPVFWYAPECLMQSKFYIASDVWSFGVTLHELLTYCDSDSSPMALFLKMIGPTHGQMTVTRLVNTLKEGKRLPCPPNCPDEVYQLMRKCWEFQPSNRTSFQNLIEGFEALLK
Chain of JAK2 (O60674 831-1132): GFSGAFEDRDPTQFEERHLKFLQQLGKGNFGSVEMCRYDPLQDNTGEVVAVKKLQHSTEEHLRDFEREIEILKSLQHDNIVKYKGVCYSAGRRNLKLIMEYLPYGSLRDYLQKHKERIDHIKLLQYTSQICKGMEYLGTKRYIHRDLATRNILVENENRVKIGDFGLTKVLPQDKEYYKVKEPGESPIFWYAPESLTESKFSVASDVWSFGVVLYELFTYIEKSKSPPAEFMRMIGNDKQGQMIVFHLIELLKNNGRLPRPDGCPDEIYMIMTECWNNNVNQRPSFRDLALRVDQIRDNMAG

For COc1nn(C)cc1Nc1nccc(-c2c[nH]c3c(NC(=O)[C@@H](C)N4CCN(C)CC4)cccc23)n1 [Example 32, (2R)-N-(3-{2-[(3-methoxy-1-methyl-1H-pyrazol-4-yl)amino]pyrimidin-4-yl}-1H-indol-7-yl)-2-(4-methylpiperazin-1-yl)propanamide], the “antitumor activity in combination with gefitinib, compared to single agent gefitinib” value [1] was “enhanced the antitumor activity of gefitinib”, the “tumor regression in combination with osimertinib, compared to osimertinib alone” value ([2]; Example 32 25 mg/kg BID + osimertinib 25 mg/kg QD, oral, 28 days) was “enhanced the tumor regression induced by osimertinib” and the “antitumor activity as a single agent” value ([2]; Example 32 25 mg/kg BID, oral, 18 days) was “no significant activity relative to vehicle control treatment”. For the same molecule, the “body weight, single agent treatment” value ([2]; mouse, in vivo) was “significant weight loss”, the “pSTAT3 knockdown in tumors” value (pSTAT3 (Y705) [3]) was “robust knockdown” and the “antitumor activity in combination with gefitinib, compared to gefitinib” value (PC-9 tumor xenografts; Example 32 12.5 or 50 mg/kg BID + gefitinib 6.25 mg/kg QD, oral, 21 days) was “enhanced the antitumor activity of gefitinib”. For the same molecule, the “antitumor activity in combination with gefitinib, compared to single agent gefitinib” value (PC-9 tumor xenografts; gefitinib + 12.5 mg/kg Example 32 daily) was “greater activity than single agent gefitinib, but did not quite achieve statistical significance”, the “antitumor activity in combination with gefitinib, compared to single agent gefitinib” value (PC-9 tumor xenografts; gefitinib + 50 mg/kg Example 32 dosed 2 days on/5 days off) was “greater activity than single agent gefitinib, but did not quite achieve statistical significance” and the “pSTAT3 knockdown in tumors” value (pSTAT3 (Y705) [4]) was “dose dependent increase in pSTAT3 knockdown”. For the same molecule, the “antitumor activity as a single agent” value ([5]; Example 32 12.5, 25, 50 mg/kg BID) was “only weak antitumor activity relative to vehicle control treatment”, the “antitumor activity in combination with osimertinib, compared to osimertinib alone” value ([5]; Example 32 12.5-50 mg/kg BID + osimertinib 2.5 mg/kg QD) was “enhanced the antitumor activity of osimertinib” and the “pSTAT3 knockdown in tumors” value (pSTAT3 (Y705) [6]) was “dose dependent increase in the duration of pSTAT3 knockdown”. For the same molecule, the “level of Example 32 in plasma” value [7] was “increasing level of Example 32 in plasma”, the “antitumor activity as a single agent” value ([8]; Example 32 50 mg/kg BID, 19 days) was “no significant activity relative to vehicle control treatment” and the “antitumor activity in combination with osimertinib, compared to osimertinib alone” value ([8]; Example 32 12.5-50 mg/kg BID, continuous or intermittent schedules + osimertinib 2.5 mg/kg QD) was “enhanced the antitumor activity of osimertinib”. The “pSTAT3 knockdown in tumors” value (pSTAT3 (Y705) [9]) was “Knockdown of pSTAT3 was observed” and the IC50 [10] was 161 nM.

For C=CC(=O)Nc1cc(Nc2nccc(-c3cn(C)c4ccccc34)n2)c(OC)cc1N(C)CCN(C)C [osimertinib, reference compound], the “body weight, single agent treatment” value ([2]; LG1049 tumor bearing mice, weight loss stated to depend on tumor growth) was “lack of significant weight loss” and the “pEGFR knockdown in tumors” value (pEGFR) was “robust knockdown”.

In the case of CCOc1nn(C)cc1Nc1ncc(C)c(-c2c[nH]c3c(NC(=O)[C@@H](COC)N4CCN(C)CC4)cccc23)n1 [Example 64, (2R)-N-(3-{2-[(3-ethoxy-1-methyl-1H-pyrazol-4-yl)amino]-5-methylpyrimidin-4-yl}-1H-indol-7-yl)-3-methoxy-2-(4-methylpiperazin-1-yl)propanamide], the IC50 (JAK3) is reported as greater than 30000 nM, the IC50 (JAK1) is reported as less than 5 nM and the IC50 (JAK2) is reported as 2040 nM. For the same molecule, the IC50 [10] was 112 nM.

For CCOc1nn(C)cc1Nc1ncc(C)c(-c2c[nH]c3c(NC(=O)[C@H](COC)N4CCN(C)CC4)cccc23)n1 [Example 65, (2S)-N-(3-{2-[(3-ethoxy-1-methyl-1H-pyrazol-4-yl)amino]-5-methylpyrimidin-4-yl}-1H-indol-7-yl)-3-methoxy-2-(4-methylpiperazin-1-yl)propanamide], the IC50 (JAK3) was greater than 30000 nM, the IC50 (JAK1) was 2530 nM and the IC50 (JAK2) was greater than 30000 nM. The IC50 [10] was 1030 nM.
